Legend:
[1] = system: immune response elicited by influenza vaccine; experiment: Serum IgG after subcutaneous immunization, FGK-1 versus synthetic GK-1 (Example 4); assay type: in vivo, female BALB/cAnN mice; details: younger mice
Description: The following treatment schedules were assessed for five-mouse groups:
(§1) Influenza vaccine was administered at a dose of 1 μg/mouse [A/New Caledonia/20/99(H1N1) strain, A/Panama/2007/99(H3N2) strain (analog to A/Moscow/10/99 strain), and B/Victoria/504/2000 strain (analog to B/Sichuan/379/99 strain)]. FLUZONE® vaccine for the flu season 2004-2005, containing 45 μg of hemagglutinin HA per 0.5 ml-dose, was used.
(§2) Synthetic GK-1 peptide was used at its optimal dose (Segura-Velźquez et al. 2006), in a 10 μg/mouse concentration.
Mice received a single dose of each immunogen by subcutaneous route at the tail base, and the induced response was evaluated in serum 21 days after immunization. Sera were obtained from peripheral blood, centrifuged at 5,000 rpm by 12 min, and aliquots were frozen until analysis.

[2] = system: immune response elicited by intranasally administered influenza vaccine; experiment: Serum IgG after intranasal immunization, FGK-1 versus synthetic GK-1 (Example 5); assay type: in vivo, female BALB/cAnN mice
Description: The following treatment schedules were administered to five-mouse groups:
as §1, §2
Mice were administered intranasally one single dose of each immunogen, and the induced response was evaluated in serum and bronchoalveolar lavages in different times after immunization, namely 21 and 45 days. Sera were obtained from peripheral blood, centrifuged at 5,000 rpm by 12 min, and aliquots were frozen until analysis. Bronchoalveolar lavages were obtained by performing intratracheal lavages with 300 μl of saline solution 45 days after immunization.

Substance: G-Y-Y-Y-P-S-D-P-N-T-F-Y-A-P-P-Y-S-A (GYYYPSDPNTFYAPPYSA) [synthetic GK-1 peptide, 18-amino acid peptide derived from a Taenia solium cysticerci cDNA library]
- antibody levels versus vaccine alone ([1]; co-administered with influenza vaccine): does not increase antibody levels
- antibody response versus influenza vaccine alone ([1]; subcutaneous, 21 days): slightly higher antibody response
- potentiation of influenza vaccine by intranasal administration [2]: does not potentiate the vaccine

From patent US9446122B2, “Use of GK-1 peptide expressed on M13 filamentous phage as pharmaceutical ingredient to enhance the efficiency of the immune response induced by vaccine or pathogen antigens” (UNIVERSIDAD NACIONAL AUTONOMA DE MEXICO, priority 2011, dated 2016)
